How the values were obtained:
[1] = target: plate-immobilized collagen (Homo sapiens, UniProt P02452+P08123); assay: collagen binding study with iodinated FN and FNPEG-5K; conditions: iodinated protein; compared with native FN
Procedure: Purified FN was then reabsorbed to gelatin agarose. Sodium cyanoborohydride and mPEG-aldehyde (MW 5,000) were added to the resin-bound FN. […] Following this reaction and subsequent washing away of the reactants, the protein was eluted from the gelatin agarose matrix. Using this reaction sequence, the collagen binding sites within FN were not modified by the pegylation. […] To test whether the modified forms of FN retained the collagen-binding properties of native FN, binding studies using iodinated FN and FNPEG-5K were undertaken. […] Thus, the key collagen-binding properties of FN were not inhibited by this targeted modification approach.

platelets = assay: platelet adhesion to FN or FNPEG-5K immobilized on tissue culture plates; assay type: cell-based, human; conditions: protein immobilized onto tissue culture plates; fluorescently labeled platelets
Procedure: As mentioned previously, FN itself has the ability to mediate adhesion of platelets. To test whether this binding potential was eliminated following mPEG-aldehyde derivatization, FN and FNPEG-5K were immobilized onto tissue culture plates. Fluorescently labeled human […] and adhesion was assessed.

[2] = tested on: blood vessel wall molecules; assay: incubation of damaged blood vessels with biotinylated bioconjugate; assay type: binding; conditions: biotinylated form
Procedure: To further assess the ECM-binding properties FNPEG-5K, damaged blood vessels were incubated with a biotinylated form of bioconjugate.

type I collagen = type I collagen (Homo sapiens, UniProt P02452+P08123); assay: platelet adhesion to type I collagen adsorbed to tissue culture plates after incubation with FN or FNPEG-5K; assay type: cell-based; conditions: incubated with the protein and washed
Procedure: (§1) Since the modified FNPEG-5K retained the collagen binding properties of native FN while lacking its intrinsic platelet activating properties, the ability of this reagent to block platelet adherence to collagen was investigated. To test this, type I collagen was adsorbed to tissue culture plates. Native FN or FNPEG-5K were then incubated with the immobilized collagen and washed. Platelet adhesion was then assessed.

vascular wall components = assay: platelet adhesion to damaged blood vessels; assay type: cell-based
Procedure: as §1

Sequence of type I collagen (P02452 162-1218 limits assumed): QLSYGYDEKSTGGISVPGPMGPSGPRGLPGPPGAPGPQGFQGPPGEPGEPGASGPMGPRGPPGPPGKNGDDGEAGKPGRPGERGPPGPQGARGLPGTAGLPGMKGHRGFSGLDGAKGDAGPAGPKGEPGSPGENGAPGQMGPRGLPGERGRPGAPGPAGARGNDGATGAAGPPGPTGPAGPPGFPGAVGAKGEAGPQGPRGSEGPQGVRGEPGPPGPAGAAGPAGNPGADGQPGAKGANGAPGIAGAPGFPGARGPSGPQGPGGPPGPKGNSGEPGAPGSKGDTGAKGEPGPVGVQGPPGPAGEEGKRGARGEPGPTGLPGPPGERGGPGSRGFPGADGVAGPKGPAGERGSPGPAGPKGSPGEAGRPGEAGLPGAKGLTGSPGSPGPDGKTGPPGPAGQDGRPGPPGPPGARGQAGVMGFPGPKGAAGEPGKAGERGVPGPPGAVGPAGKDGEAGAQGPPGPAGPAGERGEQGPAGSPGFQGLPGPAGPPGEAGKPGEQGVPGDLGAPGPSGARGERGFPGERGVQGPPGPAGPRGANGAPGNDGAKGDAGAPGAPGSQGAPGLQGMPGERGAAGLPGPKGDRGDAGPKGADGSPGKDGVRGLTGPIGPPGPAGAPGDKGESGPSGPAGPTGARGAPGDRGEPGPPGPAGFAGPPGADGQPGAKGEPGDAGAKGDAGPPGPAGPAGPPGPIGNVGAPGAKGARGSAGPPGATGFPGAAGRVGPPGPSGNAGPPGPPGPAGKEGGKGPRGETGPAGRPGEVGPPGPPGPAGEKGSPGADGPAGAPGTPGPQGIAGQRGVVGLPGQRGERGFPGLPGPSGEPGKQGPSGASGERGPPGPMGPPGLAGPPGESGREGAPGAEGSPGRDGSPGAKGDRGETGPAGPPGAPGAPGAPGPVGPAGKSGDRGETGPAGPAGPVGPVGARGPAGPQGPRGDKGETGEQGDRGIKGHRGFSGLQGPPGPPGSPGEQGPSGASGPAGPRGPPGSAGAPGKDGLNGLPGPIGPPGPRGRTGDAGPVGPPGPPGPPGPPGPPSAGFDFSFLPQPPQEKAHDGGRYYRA
Sequence of type I collagen (P08123 80-1119 limits assumed): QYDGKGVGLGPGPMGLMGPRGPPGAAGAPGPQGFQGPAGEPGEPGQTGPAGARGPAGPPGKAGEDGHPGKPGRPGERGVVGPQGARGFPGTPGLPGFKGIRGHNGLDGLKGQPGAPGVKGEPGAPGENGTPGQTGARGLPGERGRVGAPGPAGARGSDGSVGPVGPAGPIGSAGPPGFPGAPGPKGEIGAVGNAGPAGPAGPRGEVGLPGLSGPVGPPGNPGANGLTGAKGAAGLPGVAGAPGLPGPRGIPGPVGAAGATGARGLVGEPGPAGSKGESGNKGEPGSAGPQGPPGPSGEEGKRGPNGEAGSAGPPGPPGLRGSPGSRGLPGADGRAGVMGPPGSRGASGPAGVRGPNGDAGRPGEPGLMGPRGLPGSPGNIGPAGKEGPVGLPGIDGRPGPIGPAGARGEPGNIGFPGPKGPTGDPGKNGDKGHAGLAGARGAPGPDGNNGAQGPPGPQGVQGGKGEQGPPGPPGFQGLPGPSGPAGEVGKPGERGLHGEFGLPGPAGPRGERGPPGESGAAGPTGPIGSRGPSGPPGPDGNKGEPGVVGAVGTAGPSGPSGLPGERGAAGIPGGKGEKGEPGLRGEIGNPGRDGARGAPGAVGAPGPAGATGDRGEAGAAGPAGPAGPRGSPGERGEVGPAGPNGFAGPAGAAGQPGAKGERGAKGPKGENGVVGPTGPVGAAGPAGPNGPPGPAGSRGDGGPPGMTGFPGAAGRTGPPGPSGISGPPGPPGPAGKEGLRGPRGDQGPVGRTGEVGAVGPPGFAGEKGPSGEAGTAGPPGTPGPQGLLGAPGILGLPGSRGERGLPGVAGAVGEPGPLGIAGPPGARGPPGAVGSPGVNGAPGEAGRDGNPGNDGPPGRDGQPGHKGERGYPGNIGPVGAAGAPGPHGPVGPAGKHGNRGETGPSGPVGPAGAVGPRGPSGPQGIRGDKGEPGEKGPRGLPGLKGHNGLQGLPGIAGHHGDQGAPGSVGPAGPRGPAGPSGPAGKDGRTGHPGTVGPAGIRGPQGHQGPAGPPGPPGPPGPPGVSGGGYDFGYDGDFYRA
Sequence of plate-immobilized collagen (P02452 162-1218 limits assumed): as the sequence (P02452 162-1218 limits assumed) above
Sequence of plate-immobilized collagen (P08123 80-1119 limits assumed): as the sequence (P08123 80-1119 limits assumed) above

## FNPEG-5K: human plasma fibronectin pegylated on lysine residues with mPEG-aldehyde (MW 5,000) by reductive amination while bound to gelatin agarose
[1]
  binding to plate-immobilized collagen: bound plate-immobilized collagen in a manner similar to native FN
platelets
  binding to platelets (platelet adhesion to immobilized protein): markedly attenuated
[2]
  coating of blood vessel wall molecules (ECM binding): coats blood vessel wall molecules
Type I collagen
  inhibition of platelet binding to type I collagen: potently inhibited
Vascular wall components
  blocking of platelet adhesion to vascular wall components: blocks platelet adhesion to vascular wall components

— patent US20130243700A1, “Proteomic Antisense Molecular Shield and Targeting” (priority 2005, published 2013)
